From the NIST ThermoML archive (doi:10.1016/j.jct.2006.05.005)
± gives the expanded uncertainty stated by the source.

Columns and labels:
[1] = Liquid; for mass density: 293.15 K, 101.33 kPa
[2] = refractive index (Na D-line) (dimensionless); details: 293.15 K; 101.33 kPa; Liquid

Row | mass density [1] | Normal boiling temperature [1] | refractive index [2] | SMILES
1 | 723.9 ± 2.4 kg/m3 | 68.40 ± 0.4 °C |  | CC(C)OC(C)C [diisopropyl ether]
2 | 736.1 ± 8.8 kg/m3 | 90.08 ± 0.4 °C | 1.3813 ± 0.0064 | CCCOCCC [dipropyl ether]
3 | 993 ± 0.74 kg/m3 | 141.2 ± 0.4 °C | 1.3811 ± 0.0017 | CCC(=O)O [propanoic acid]
